PMC6199744, “Development of Chemical Proteomics for the Folateome and Analysis of the Kinetoplastid Folateome” (ACS Infectious Diseases, 2018)

Tested on: L. major lysate proteins
Assay: Multitargeted bead mixture chemoproteomics, single concentration competition, proteome-wide
Type: binding
Conditions: for fold change: vehicle control = 1

NCCOCCOCC(=O)Nc1nc2ncc(CNc3ccc(C(=O)NC(CCC(=O)O)C(=O)O)cc3)nc2c(=O)[nH]1 (stereo not shown) [compound 6]
fold change vs vehicle control (protein LMJF.15.0690 HY[…], CONSERVED): 1.26
fold change (protein LMJF.15.1010 GLUTAMATE DEHYDROGENASE): 1.11
fold change (protein LMJF.15.1190 HY[…], CONSERVED (cyclic nucleotide-binding domain containing protein, putative)): 1.07
fold change vs vehicle control (protein LMJF.16.0520 HYPOTHETICAL PROTEIN, CONSERVED): 0.99
fold change vs vehicle control (protein LMJF.16.0540 ASPARTATE […], PUTATIVE): 1.06
fold change relative to vehicle control (protein LMJF.16.0760, TRANSALDOLASE, PUTATIVE): 1.36
fold change vs vehicle control (protein LMJF.16.0940 DYNEIN LIGHT CHAIN, PUTATIVE): 0.92
fold change relative to vehicle control (protein LMJF.16.1180, COATOMER DELTA SUBUNIT-LIKE PROTEIN): 1.24
fold change relative to vehicle control (protein LMJF.16.1320, […], PUTATIVE): 1.33
fold change relative to vehicle control (protein LMJF.16.1420, HY[…], CONSERVED): 1.05
fold change relative to vehicle control (protein LMJF.17.0081, […] 1-ALPHA): 1.09
fold change relative to vehicle control (protein LMJF.18.0270, GLYCOGEN SYNTHASE KINASE, PUTATIVE): 1.13
fold change (protein LMJF.18.0580 PEROXISOMAL ENOYL-COA HYDRATASE, PUTATIVE): 0.98
fold change relative to vehicle control (protein LMJF.18.0680, CITRATE SYNTHASE, PUTATIVE): 1.1
fold change vs vehicle control (protein LMJF.18.1010 DYNEIN LIGHT CHAIN 2B, CYTOPLASMIC, PUTATIVE): 0.82
fold change vs vehicle control (protein LMJF.18.1210 PROLYL-TRNA SYNTHETASE, PUTATIVE,BIFUNCTIONAL AMINOACYL-TRNA SYNTHETASE, PUTATIVE): 1
fold change vs vehicle control (protein LMJF.18.1370 HEAT SHOCK PROTEIN, PUTATIVE): 1.1
fold change (protein LMJF.19.0200 ADP,ATP CARRIER PROTEIN 1, MITOCHONDRIAL PRECURSOR, PUTATIVE): 1.1
fold change vs vehicle control (protein LMJF.19.1120 PROTEASOME REGULATORY NON-ATP-ASE SUBUNIT, PUTATIVE): 0.96
fold change vs vehicle control (protein LMJF.19.1160 HY[…], CONSERVED): 1.08
fold change vs vehicle control (protein LMJF.19.1560 INOSINE-5'-MONOPHOSPHATE DEHYDROGENASE): 0.98
fold change relative to vehicle control (protein LMJF.19.1620, POTASSIUM VOLTAGE-GATED CHANNEL, PUTATIVE): 1.05
fold change vs vehicle control (protein LMJF.20.1280 SMALL MYRISTOYLATED PROTEIN 4, PUTATIVE): 0.89
fold change (protein LMJF.21.0810 METHIONYL-TRNA SYNTHETASE, PUTATIVE): 1.03
fold change (protein LMJF.21.1450 ARGININE N-METHYLTRANSFERASE, TYPE II, PUTATIVE): 0.96
fold change vs vehicle control (protein LMJF.21.1830 […] 5 SUBUNIT, PUTATIVE,20S […] ALPHA 5, (PUTATIVE)): 1.01
fold change (protein LMJF.22.0230 AMINO ACID PERMEASE, PUTATIVE): 1.05
fold change vs vehicle control (protein LMJF.22.0570 […] SUBUNIT 1, PUTATIVE): 1.03
fold change vs vehicle control (protein LMJF.22.0730 HYPOTHETICAL PROTEIN, CONSERVED): 0.94
fold change (protein LMJF.22.0770 NADH-CYTOCHROME B5 REDUCTASE, PUTATIVE): 0.79
fold change relative to vehicle control (protein LMJF.23.0020, HY[…], CONSERVED): 1.46
fold change relative to vehicle control (protein LMJF.23.0040, PEROXIDOXIN): 0.97
fold change relative to vehicle control (protein LMJF.23.0080, HY[…], CONSERVED): 1.04
fold change (protein LMJF.23.0210 ATP-BINDING CASSETTE PROTEIN SUBFAMILY C, MEMBER 1, PUTATIVE): 0.92
fold change (protein LMJF.23.0370 CYTOCHROME C OXIDASE SUBUNIT 10, PUTATIVE): 0.83
fold change relative to vehicle control (protein LMJF.23.0540, ACETYL-COA SYNTHETASE, PUTATIVE): 1.23
fold change vs vehicle control (protein LMJF.23.0560 KINESIN, PUTATIVE): 1.1
fold change vs vehicle control (protein LMJF.23.1410 HY[…], CONSERVED): 1.01
fold change relative to vehicle control (protein LMJF.24.0070, HYPOTHETICAL PROTEIN, CONSERVED): 0.93
fold change (protein LMJF.24.0140 ANKYRIN/TPR REPEAT PROTEIN): 1.06
fold change (protein LMJF.24.0400 HY[…], CONSERVED (TPR repeat, putative)): 1.02
fold change relative to vehicle control (protein LMJF.24.1510, IGE-DEPENDENT HISTAMINE-RELEASING FACTOR, PUTATIVE): 1.54
fold change relative to vehicle control (protein LMJF.24.1630, SUCCINATE DEHYDROGENASE FLAVOPROTEIN, PUTATIVE): 1.08
fold change relative to vehicle control (protein LMJF.24.2060, TRANSKETOLASE): 1.04
fold change relative to vehicle control (protein LMJF.25.0010, BETA […] TRANSFERASE): 1.13
fold change relative to vehicle control (protein LMJF.25.0910, CYCLOPHILIN A): 2.21
fold change vs vehicle control (protein LMJF.25.1130 CYTOCHROME C OXIDASE VII, PUTATIVE): 0.99
fold change relative to vehicle control (protein LMJF.25.1180, ATPASE BETA SUBUNIT, PUTATIVE): 1.13
fold change vs vehicle control (protein LMJF.25.1610 HY[…], CONSERVED): 1.01
fold change vs vehicle control (protein LMJF.25.1620 HYPOTHETICAL PROTEIN, CONSERVED): 1.1
fold change (protein LMJF.25.2340 SERINE/THREONINE-PROTEIN KINASE, PUTATIVE,PROTEIN KINASE, PUTATIVE): 0.74
fold change relative to vehicle control (protein LMJF.26.0630, HYPOTHETICAL PROTEIN, CONSERVED): 0.77
fold change vs vehicle control (protein LMJF.26.1240 HEAT SHOCK PROTEIN 70-RELATED PROTEIN): 1.06
fold change (protein LMJF.26.1710 CYTOCHROME C OXIDASE SUBUNIT V, PUTATIVE): 0.98
fold change vs vehicle control (protein LMJF.26.2480 CDP-DIACYLGLYCEROL--INOSITOL 3-[…], PUTATIVE): 1.06
fold change vs vehicle control (protein LMJF.26.2560 HYPOTHETICAL PROTEIN, CONSERVED): 0.93
fold change vs vehicle control (protein LMJF.27.0190 PROTEASOME ALPHA 7 SUBUNIT, PUTATIVE): 0.98
fold change (protein LMJF.27.0650 HY[…], CONSERVED): 1.15
fold change (protein LMJF.27.0700 HY[…], CONSERVED): 1.08
fold change vs vehicle control (protein LMJF.27.0760 GTP-binding protein homologue): 1.08
fold change vs vehicle control (protein LMJF.27.1060 CYSTEINE DESULFURASE, PUTATIVE): 1.09
fold change vs vehicle control (protein LMJF.27.1110 MITOCHONDRIAL RNA BINDING PROTEIN 1,GBP21, MRP1): 1
fold change (protein LMJF.27.1250 HYPOTHETICAL PROTEIN, CONSERVED (Serine-threonine kinase receptor-associated protein, putative)): 0.85
fold change relative to vehicle control (protein LMJF.27.1390, 60S ACIDIC RIBOSOMAL SUBUNIT PROTEIN, PUTATIVE): 1.07
fold change (protein LMJF.27.1460 PROTEASOME REGULATORY NON-ATP-ASE SUBUNIT 3, PUTATIVE): 1.1
fold change vs vehicle control (protein LMJF.28.0110 […] 3 SUBUNIT, PUTATIVE): 1.01
fold change vs vehicle control (protein LMJF.28.0490 PROPIONYL-COA CARBOXYLASE BETA CHAIN, PUTATIVE): 1.2
